Data: patent US20230027026A1, “FUSED PYRIMIDINE COMPOUNDS, COMPOSITIONS AND MEDICINAL APPLICATIONS THEREOF” (JUBILANT BIOSYS LIMITED, priority 2019, published 2023)

What was measured:
[1] = molecular target: EGFR (A767_dupASV) expressing Ba/F3 stable cell line (Homo sapiens, UniProt P00533, DUP767-769, cells depend on it); experiment: Cellular proliferation (Alamar Blue) assay, EGFR A767_dupASV Ba/F3; assay type: cell-based; settings: EGFR A767_dupASV Ba/F3, 72 hr, read-out: A767 IC50
Summary of the method: (§1)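 Alamar Blue proliferation read-out (3 h incubation, ex 540/em 590 nm) after 72 h compound exposure at 37 °C, 5% CO2, using final concentrations of 10-0.0005 μM in 3-fold steps. Cells: engineered Ba/F3 lines at 15,000 per well in RPMI/10% FBS, and BT-474.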

[2] = molecular target: EGFR(D770_N771insSVD) expressing Ba/F3 stable cell line (Homo sapiens, UniProt P00533, DUP768-770, cells depend on it); experiment: Cellular proliferation (Alamar Blue) assay, EGFR D770_N771insSVD Ba/F3; assay type: cell-based; settings: EGFR D770_N771insSVD Ba/F3, 72 hr, read-out: D770 IC50
EGFR(D770_N771insSVD) expressing Ba/F3 stable cell line, sequence (P00533 with tags, fused parts or gaps DUP768-770): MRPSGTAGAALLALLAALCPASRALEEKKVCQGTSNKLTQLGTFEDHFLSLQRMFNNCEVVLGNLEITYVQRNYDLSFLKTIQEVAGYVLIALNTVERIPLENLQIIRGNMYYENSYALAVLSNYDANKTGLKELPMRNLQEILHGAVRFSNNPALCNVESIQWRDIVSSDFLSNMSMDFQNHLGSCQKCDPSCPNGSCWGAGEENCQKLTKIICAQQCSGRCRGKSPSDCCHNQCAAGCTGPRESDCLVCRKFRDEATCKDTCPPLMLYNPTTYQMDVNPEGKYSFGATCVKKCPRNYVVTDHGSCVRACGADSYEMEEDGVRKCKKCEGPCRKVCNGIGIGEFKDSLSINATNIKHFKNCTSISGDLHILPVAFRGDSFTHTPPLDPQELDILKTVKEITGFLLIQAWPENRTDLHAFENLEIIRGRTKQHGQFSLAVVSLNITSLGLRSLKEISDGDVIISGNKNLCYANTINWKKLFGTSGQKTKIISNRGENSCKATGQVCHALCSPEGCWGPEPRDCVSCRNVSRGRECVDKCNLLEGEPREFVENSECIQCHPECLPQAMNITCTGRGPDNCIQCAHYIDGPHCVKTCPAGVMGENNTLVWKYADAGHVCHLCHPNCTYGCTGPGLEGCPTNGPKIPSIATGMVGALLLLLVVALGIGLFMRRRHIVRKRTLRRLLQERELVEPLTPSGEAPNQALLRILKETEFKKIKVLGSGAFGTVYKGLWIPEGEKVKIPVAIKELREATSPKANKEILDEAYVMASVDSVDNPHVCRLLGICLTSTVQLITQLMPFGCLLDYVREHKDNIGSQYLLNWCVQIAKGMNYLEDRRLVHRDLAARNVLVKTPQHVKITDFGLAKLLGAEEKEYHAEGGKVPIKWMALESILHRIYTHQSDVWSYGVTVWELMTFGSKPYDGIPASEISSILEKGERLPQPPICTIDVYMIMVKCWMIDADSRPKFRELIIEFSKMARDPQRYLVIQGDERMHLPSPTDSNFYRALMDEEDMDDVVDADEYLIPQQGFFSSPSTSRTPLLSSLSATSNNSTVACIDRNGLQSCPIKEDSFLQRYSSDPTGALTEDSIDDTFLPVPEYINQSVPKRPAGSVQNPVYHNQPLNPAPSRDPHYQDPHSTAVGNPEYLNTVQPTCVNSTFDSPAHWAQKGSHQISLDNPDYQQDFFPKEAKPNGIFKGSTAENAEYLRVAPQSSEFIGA
Summary of the method: as §1

[3] = system: A431 cells; experiment: Cellular proliferation (Alamar Blue) assay, A431; assay type: cell-based; settings: Homo sapiens, A-431; A431 cells, 72 hr, Alamar Blue; read-out: A431 IC50
Summary of the method: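 Seventy-two-hour growth assay with 3-fold compound titration (final 10–0.0005 μM) and Alamar Blue fluorescence end point, ex 540/em 590 nm.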

[4] = molecular target: T1, EGFR (T790M/L858R) (Homo sapiens, UniProt P00533, L858R/T790M); experiment: EGFR L858R/T790M enzyme inhibition assay (HTRF); assay type: biochemical; settings: 5 μM ATP, 60 min, read-out: EGFR_L858R T790M_IC50_nM
T1 construct: GST; purchased Proqinase
T1 sequence (P00533 25-1210 T790M/L858R): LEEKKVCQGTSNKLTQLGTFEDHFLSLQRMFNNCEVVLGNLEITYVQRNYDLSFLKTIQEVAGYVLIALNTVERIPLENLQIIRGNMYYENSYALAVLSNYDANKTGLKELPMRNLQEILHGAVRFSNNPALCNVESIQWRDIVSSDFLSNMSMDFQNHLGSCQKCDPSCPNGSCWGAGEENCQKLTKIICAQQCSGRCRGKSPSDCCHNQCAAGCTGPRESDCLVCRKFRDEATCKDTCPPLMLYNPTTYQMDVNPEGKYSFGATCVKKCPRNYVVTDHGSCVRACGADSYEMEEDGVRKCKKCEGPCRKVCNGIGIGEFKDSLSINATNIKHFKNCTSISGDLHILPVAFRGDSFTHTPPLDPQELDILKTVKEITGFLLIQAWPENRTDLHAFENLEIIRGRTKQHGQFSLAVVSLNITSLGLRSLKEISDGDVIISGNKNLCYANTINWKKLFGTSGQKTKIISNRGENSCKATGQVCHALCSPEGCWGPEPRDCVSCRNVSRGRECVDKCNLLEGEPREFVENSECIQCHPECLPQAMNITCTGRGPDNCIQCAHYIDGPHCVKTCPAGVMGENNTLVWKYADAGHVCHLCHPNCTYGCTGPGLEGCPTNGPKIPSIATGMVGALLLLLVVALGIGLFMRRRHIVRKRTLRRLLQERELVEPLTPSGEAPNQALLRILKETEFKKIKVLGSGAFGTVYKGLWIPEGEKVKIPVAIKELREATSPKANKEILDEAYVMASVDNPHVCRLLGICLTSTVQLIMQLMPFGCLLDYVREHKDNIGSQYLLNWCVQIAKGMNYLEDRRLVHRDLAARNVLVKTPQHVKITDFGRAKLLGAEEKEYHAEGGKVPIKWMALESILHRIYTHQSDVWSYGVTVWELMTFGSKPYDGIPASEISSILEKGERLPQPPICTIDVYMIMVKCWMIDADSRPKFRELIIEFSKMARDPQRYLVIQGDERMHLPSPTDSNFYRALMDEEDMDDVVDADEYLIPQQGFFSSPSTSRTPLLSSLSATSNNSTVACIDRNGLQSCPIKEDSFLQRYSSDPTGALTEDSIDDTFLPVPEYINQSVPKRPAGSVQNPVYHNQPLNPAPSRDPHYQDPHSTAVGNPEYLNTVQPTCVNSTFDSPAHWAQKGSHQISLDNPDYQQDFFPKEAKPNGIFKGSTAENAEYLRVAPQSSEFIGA
Summary of the method: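 HTRF kinase assay with 2.5 nM GST-EGFR T790M/L858R, 0.5 μM biotinylated gastrin peptide and 5 μM ATP in HEPES pH 7.4 with Mg/Mn, 60 min at room temperature; compounds from 10 μM top. Phosphotyrosine detected by Eu anti-pTyr/SA-APC; IC50 from % inhibition.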

[5] = system: H1975 cells (L858R_T790M mutant); experiment: H1975 proliferation assay; assay type: cell-based; settings: Homo sapiens, NCI-H1975; read-out: Proliferation_Assay H1975 cells-EC50_nM L858R_T790M_mutant
[6] = molecular target: HER2 (A775_G776insYVMA) expressing Ba/F3 stable cell line (Homo sapiens, UniProt P04626, DUP772-775, cells depend on it); experiment: Cellular proliferation (Alamar Blue) assay, HER2 YVMA Ba/F3; assay type: cell-based; settings: HER2 A775_G776insYVMA Ba/F3, 72 hr, read-out: YVMA IC50
HER2 (A775_G776insYVMA) expressing Ba/F3 stable cell line, sequence (P04626 with tags, fused parts or gaps DUP772-775): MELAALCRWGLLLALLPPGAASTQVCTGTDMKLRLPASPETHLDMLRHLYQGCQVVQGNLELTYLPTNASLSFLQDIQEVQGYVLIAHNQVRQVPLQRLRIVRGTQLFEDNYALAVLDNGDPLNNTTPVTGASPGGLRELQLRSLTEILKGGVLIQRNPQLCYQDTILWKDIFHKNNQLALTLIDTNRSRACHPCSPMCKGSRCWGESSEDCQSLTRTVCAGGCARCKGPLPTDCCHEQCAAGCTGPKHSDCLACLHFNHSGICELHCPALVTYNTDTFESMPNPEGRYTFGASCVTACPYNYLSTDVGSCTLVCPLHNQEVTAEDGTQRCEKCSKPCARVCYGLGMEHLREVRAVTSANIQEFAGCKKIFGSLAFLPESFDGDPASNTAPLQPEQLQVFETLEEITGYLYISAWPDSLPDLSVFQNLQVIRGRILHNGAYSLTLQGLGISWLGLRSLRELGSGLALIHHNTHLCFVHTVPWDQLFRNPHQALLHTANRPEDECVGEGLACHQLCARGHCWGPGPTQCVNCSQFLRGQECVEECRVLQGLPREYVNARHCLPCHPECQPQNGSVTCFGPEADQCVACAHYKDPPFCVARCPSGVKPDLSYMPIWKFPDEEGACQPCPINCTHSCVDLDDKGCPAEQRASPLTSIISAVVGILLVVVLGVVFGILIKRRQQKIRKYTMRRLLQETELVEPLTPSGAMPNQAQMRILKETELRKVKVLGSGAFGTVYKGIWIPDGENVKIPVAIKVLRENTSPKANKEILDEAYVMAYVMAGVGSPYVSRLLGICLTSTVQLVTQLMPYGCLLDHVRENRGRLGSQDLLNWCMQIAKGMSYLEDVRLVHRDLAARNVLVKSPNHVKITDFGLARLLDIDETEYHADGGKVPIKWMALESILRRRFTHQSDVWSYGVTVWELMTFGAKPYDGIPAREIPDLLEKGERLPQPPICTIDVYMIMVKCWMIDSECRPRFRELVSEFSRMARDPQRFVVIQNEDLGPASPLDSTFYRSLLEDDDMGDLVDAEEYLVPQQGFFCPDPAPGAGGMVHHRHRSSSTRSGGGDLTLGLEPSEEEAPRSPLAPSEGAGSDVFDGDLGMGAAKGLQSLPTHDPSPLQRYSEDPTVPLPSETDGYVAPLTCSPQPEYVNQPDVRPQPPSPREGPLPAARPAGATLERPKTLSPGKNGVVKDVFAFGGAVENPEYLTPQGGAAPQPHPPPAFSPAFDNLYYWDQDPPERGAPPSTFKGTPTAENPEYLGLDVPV
Summary of the method: as §1

[7] = system: BT-474 cells; experiment: Cellular proliferation (Alamar Blue) assay, BT-474; assay type: cell-based; settings: Homo sapiens
Protocol: (§2) Example 3: Cellular Proliferation (Alamar Blue) Assays
(§3) • 1. EGFR(D770_N771insSVD) expressing Ba/F3 stable cell line • 2. EGFR (A767_dupASV) expressing Ba/F3 stable cell line • 3. A431 cells • 4. BTER2 (A775_G776insYVMA) expressing Ba/F3 stable cell line • 5. BTER2 (WT) expressing Ba/F3 stable cell line • 6. BT-474 cells
(§4) • 1. Seed cells at 5000 for A431 and 15,000 cells for Ba/F3 in 100 μL/well in complete media (for A431: DMEM with 10% FBS and for Ba/F3 cells: RPMI with 10% FBS) in 96-well tissue culture plate. Leave outer wells without cells for background measurements. Incubate at 37 degree Celsius in 5% CO2 humidified incubator for 16-18 hours. • 2. Add 0.025 ml of 5× concentration compound dilution or DMSO control. Final compound concentration range is 10-0.0005 μM prepared in 3-fold serial dilutions. Incubate for 72 hr at 37 degree Celsius in […] humidified incubator. • 3. Add 0.0125 mL Alamar Blue™ reagent to each well with multi-channel pipette and tap gently on each side of the plate to mix. Incubate for 3 hours at 37 degree Celsius in […] humidified incubator. • 4. Read plates on fluorescence reader (Tecan Spark Control, Device: Spark, Serial #: 1801006040) at 540 nm excitation, 590 nm emission wavelength. • 5. Data analysis was performed using XLfit 5.5.0.5.

[8] = molecular target: HER2 (WT) expressing Ba/F3 stable cell line (Homo sapiens, UniProt P04626); experiment: Cellular proliferation (Alamar Blue) assay, HER2 WT Ba/F3; assay type: cell-based; settings: HER2 WT Ba/F3, 72 hr, read-out: HER2 WT Ba/F3 IC50
Protocol: as §2, §3, §4

EGFR (A767_dupASV) expressing Ba/F3 stable cell line, sequence (P00533 with tags, fused parts or gaps DUP767-769): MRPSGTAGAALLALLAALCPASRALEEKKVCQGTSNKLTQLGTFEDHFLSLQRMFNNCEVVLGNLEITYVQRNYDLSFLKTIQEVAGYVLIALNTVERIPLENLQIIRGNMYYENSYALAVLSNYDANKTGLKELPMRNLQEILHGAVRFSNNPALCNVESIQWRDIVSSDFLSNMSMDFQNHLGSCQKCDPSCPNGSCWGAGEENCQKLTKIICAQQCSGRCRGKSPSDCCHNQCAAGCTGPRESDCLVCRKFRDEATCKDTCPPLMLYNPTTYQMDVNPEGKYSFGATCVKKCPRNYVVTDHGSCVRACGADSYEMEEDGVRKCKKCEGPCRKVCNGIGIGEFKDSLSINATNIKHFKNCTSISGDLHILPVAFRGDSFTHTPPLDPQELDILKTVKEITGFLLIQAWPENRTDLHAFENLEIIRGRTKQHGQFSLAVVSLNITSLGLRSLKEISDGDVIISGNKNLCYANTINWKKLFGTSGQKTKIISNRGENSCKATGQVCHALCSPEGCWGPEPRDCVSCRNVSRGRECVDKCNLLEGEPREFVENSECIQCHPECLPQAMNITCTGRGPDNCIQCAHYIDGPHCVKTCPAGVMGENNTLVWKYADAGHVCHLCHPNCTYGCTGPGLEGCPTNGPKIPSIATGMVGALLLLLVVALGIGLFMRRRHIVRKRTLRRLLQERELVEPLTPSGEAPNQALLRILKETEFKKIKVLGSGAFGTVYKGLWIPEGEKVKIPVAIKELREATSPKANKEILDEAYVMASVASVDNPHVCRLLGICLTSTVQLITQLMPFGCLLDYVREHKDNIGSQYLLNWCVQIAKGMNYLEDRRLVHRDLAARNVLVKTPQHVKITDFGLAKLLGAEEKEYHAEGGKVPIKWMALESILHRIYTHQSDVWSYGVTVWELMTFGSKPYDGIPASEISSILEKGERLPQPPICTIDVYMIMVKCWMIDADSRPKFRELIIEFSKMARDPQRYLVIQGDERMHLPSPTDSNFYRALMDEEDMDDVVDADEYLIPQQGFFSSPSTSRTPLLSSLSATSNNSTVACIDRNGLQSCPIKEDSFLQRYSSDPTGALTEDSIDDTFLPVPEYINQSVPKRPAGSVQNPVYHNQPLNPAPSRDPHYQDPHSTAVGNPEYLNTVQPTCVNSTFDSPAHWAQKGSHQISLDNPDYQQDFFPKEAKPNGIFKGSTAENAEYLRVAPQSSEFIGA

| Compound | GI50 [1] | GI50 [2] | IC50 [3] | IC50 [4] | EC50 [5] | GI50 [6] | IC50 [7] | GI50 [8] |
| --- | --- | --- | --- | --- | --- | --- | --- | --- |
| C=CC(=O)Nc1cccc(N2C(=O)N(Cc3ccccc3)Cc3cnc(Nc4ccc(N5CCOCC5)nc4)nc32)c1 [Compound 46, N-(3-(3-benzyl-7-((6-morpholinopyridin-3-yl)amino)-2-oxo-3,4-dihydropyrimido[4,5-d]pyrimidin-1(2H)-yl)phenyl)acrylamide] | 14 nM | 16 nM | 1700 nM | 2.6 nM | 3.7 nM | 67 nM |  |  |
| CC(C)n1cc(Nc2ncc3c(n2)N(c2cccc(NC(=O)/C=C/CN(C)C)c2)C(=O)N(Cc2ccccc2)C3)cn1 [Compound 9, (E)-N-(3-(3-benzyl-7-((1-isopropyl-1H-pyrazol-4-yl)amino)-2-oxo-3,4-dihydropyrimido[4,5-d]pyrimidin-1(2H)-yl)phenyl)-4-(dimethylamino)but-2-enamide] | 103 nM | 114 nM | 6870 nM | 4 nM | 17.6 nM | 38 nM |  |  |
| C=CC(=O)Nc1cccc(N2C(=O)N(Cc3ccccc3)Cc3cnc(Nc4cn(CC(F)(F)F)nc4C)nc32)c1 [Compound 6, N-(3-(3-benzyl-7-((3-methyl-1-(2,2,2-trifluoroethyl)-1H-pyrazol-4-yl)amino)-2-oxo-3,4-dihydropyrimido[4,5-d]pyrimidin-1(2H)-yl)phenyl)acrylamide] | 9 nM | 9 nM | 1890 nM | 1 nM | 8.1 nM | 11 nM |  |  |
| CN(C)C/C=C/C(=O)Nc1cccc(N2C(=O)N(c3ccccc3)Cc3cnc(Nc4cn(C)nc4Cl)nc32)c1 [Compound 35, (E)-N-(3-(7-((3-chloro-1-methyl-1H-pyrazol-4-yl)amino)-2-oxo-3-phenyl-3,4-dihydropyrimido[4,5-d]pyrimidin-1(2H)-yl)phenyl)-4-(dimethylamino)but-2-enamide] | 12 nM | 55 nM | 2170 nM | 7.8 nM | 79 nM | 154 nM |  |  |
| CN(C)C/C=C/C(=O)Nc1cccc(N2C(=O)N(Cc3ccccc3)Cc3cnc(Nc4cn(C)nc4Cl)nc32)c1 [Compound 20, (E)-N-(3-(3-benzyl-7-((3-chloro-1-methyl-1H-pyrazol-4-yl)amino)-2-oxo-3,4-dihydropyrimido[4,5-d]pyrimidin-1(2H)-yl)phenyl)-4-(dimethylamino)but-2-enamide] | 34 nM | 35 nM | 595 nM | 1 nM | 2 nM | 14.9 nM | 4.1 nM | 0.7 nM |
| C=CC(=O)Nc1cccc(N2C(=O)N(Cc3ccccc3)Cc3cnc(Nc4cnn(C)c4)nc32)c1 [Compound 1, N-(3-(3-benzyl-7-((1-methyl-1H-pyrazol-4-yl)amino)-2-oxo-3,4-dihydropyrimido[4,5-d]pyrimidin-1(2H)-yl)phenyl)acrylamide] | 14 nM | 4 nM | 65 nM | 0.4 nM | 6.8 nM | 9.9 nM | 7.7 nM | < 0.5 nM |
| CN(C)C/C=C/C(=O)Nc1cccc(N2C(=O)N(Cc3ccccc3)Cc3cnc(Nc4cnn(C)c4)nc32)c1 [Compound 49, (E)-N-(3-(3-benzyl-7-((1-methyl-1H-pyrazol-4-yl)amino)-2-oxo-3,4-dihydropyrimido[4,5-d]pyrimidin-1(2H)-yl)phenyl)-4-(dimethylamino)but-2-enamide] | 351 nM | 476 nM | ≥ 10000 nM | 0.6 nM | 2.1 nM | 178 nM |  |  |
| C=CC(=O)Nc1cccc(N2C(=O)N(Cc3ccccc3)Cc3cnc(Nc4cnn(CCOC)c4)nc32)c1 [Compound 15, N-(3-(3-benzyl-7-((1-(2-methoxyethyl)-1H-pyrazol-4-yl)amino)-2-oxo-3,4-dihydropyrimido[4,5-d]pyrimidin-1(2H)-yl)phenyl)acrylamide] | 10 nM | 6 nM | 77 nM | 2 nM | 1.8 nM | 23 nM |  |  |
| C=CS(=O)(=O)Nc1cccc(N2C(=O)N(Cc3ccccc3)Cc3cnc(Nc4cnn(C)c4)nc32)c1 [Compound 47, N-(3-(3-benzyl-7-((1-methyl-1H-pyrazol-4-yl)amino)-2-oxo-3,4-dihydropyrimido[4,5-d]pyrimidin-1(2H)-yl)phenyl)ethenesulfonamide] | 2260 nM | ≥ 10000 nM | ≥ 10000 nM | 0.9 nM | 819 nM |  |  |  |
| CN(C)C/C=C/C(=O)Nc1cccc(N2C(=O)N(Cc3ccccc3)Cc3cnc(Nc4cnn(CCO)c4)nc32)c1 [Compound 14, (E)-N-(3-(3-benzyl-7-((1-(2-hydroxyethyl)-1H-pyrazol-4-yl)amino)-2-oxo-3,4-dihydropyrimido[4,5-d]pyrimidin-1(2H)-yl)phenyl)-4-(dimethylamino)but-2-enamide] | 2570 nM | 2920 nM | 6080 nM | 5 nM | 37.8 nM |  |  |  |
